Marks after values point to notes of the source that are not given here.

The test system of one test is Calu-6 NSCLC xenograft. Description: Calu-6 flank xenograft model, tumor growth delay. The format is in vivo, nu/nu mice. The method, then:
Female nu/nu mice (Charles River Labs.) were injected subcutaneously with 0.25 mL of 5×10^6 Calu-6 cells (1:1 with matrigel) on study day 0. The human Calu-6 cells were obtained from a tumor homogenate from previously inoculated donor mice. The cellular implantation site was the right thigh, and all mice were ear tagged. On day 10, tumors were size matched to approximately 170 mm^3 and were placed into the therapy groups outlined in the study design below. The tumors were measured with calipers 2-3 times per week after tumors were palpable. Tumor volume were calculated according to the formula V=L×W^2/2 (V: volume, mm^3; L: length, mm. W: width, mm). The mice were humanely euthanized when the tumor volumes reached a predetermined size. The study design was as follows:
ABT-751 was formulated in 1% HCl, 4% ethanol, and 95% D5W while pemetrexed was formulated in normal saline.
Study group treatments are defined in Table 1.

Test [1] relates to thymidine kinase minus human colon carcinoma xenograft (GC3 TK-). Description: GC3 TK- flank xenograft model, tumor growth delay. Type of test: in vivo, nu/nu mice. The method, then:
nu/nu female mice (Charles Rivers Labs) were injected subcutaneously with 0.2 mL of 5×10^6 GC3TK-100c3 cells (1:1 matrigel) on study day 0. […] The cellular implantation site was the right flank, and all mice were ear tagged. Tumors were size matched to 205 mm^3, and animals were placed into the therapy groups shown in the study design below (Table 3). The tumors were measured with calipers 2 times per week after tumors were palpable. The mice were humanely euthanized when the tumor volumes reached a predetermined size. The study design was as follows: [table]

Test [2] shares this test system. The settings on record: Schultz, 1999; cited from earlier work.

For the compound `COc1ccc(S(=O)(=O)Nc2cccnc2Nc2ccc(O)cc2)cc1` [ABT-751, N-(2-((4-Hydroxyphenyl)amino)pyridin-3-yl)-4-methoxybenzenesulfonamide], the “Mean % TGD (tumor growth delay) increase compared to vehicle in time to 1.5 cc tumor” value is 18.0***^b % in the test on Calu-6 NSCLC xenograft (Group 1: ABT-751 100 mg/kg p.o. Days 10-14 and 20-24, plus pemetrexed vehicle); 18.0*** % with Calu-6 NSCLC xenograft (Group 6: ABT-751 100 mg/kg p.o. Days 15-19 and 25-29, plus pemetrexed vehicle). The “Median % TGD (tumor growth delay) increase compared to vehicle in time to 0.75 cc tumor” value in test [1] (Group 1: ABT-751 100 mg/kg p.o. Days 38-42 and 48-52, plus pemetrexed vehicle) is listed as 0.0%.

Regarding `Nc1nc2[nH]cc(CCc3ccc(C(=O)N[C@@H](CCC(=O)O)C(=O)O)cc3)c2c(=O)[nH]1` [pemetrexed], the “Mean % TGD (tumor growth delay) increase compared to vehicle in time to 1.5 cc tumor” value in the test on Calu-6 NSCLC xenograft (Group 2: pemetrexed 150 mg/kg i.p. Days 10-14 and 20-24, plus ABT-751 vehicle) was 11.1** %; with Calu-6 NSCLC xenograft (Group 4: pemetrexed 150 mg/kg i.p. Days 15-19 and 25-29, plus ABT-751 vehicle), 5.6* %. Further, the “sensitivity in the thymidine kinase-deficient GC3 model” value in test [2] is “quite sensitive”. The “Median % TGD (tumor growth delay) increase compared to vehicle in time to 0.75 cc tumor” value is given as 14.8% in test [1] (Group 2: pemetrexed 150 mg/kg i.p. Days 38-42, plus ABT-751 vehicle) and 30.7*^b % in test [1] (Group 3: pemetrexed 150 mg/kg i.p. Days 43-47, plus ABT-751 vehicle).

Values taken from patent US20080153858A1, “ANTITUMORIGENIC DRUG COMBINATION” (ABBOTT LABORATORIES, priority 2006, published 2008).
